Laboratory results: patent US9493451B2 (Bionomics Limited, priority 2011, dated 2016)

Biological target: T1, Kv1.3 (Homo sapiens, UniProt P22001)
T1 construct: expressed in transfected cells; host or cells: CHO (Kv1.3/CHO)
Experiment: Electrophysiology: planar patch-clamp of Kv1.3 currents, IC50 from steady state current amplitude
Assay type: cell-based
Details: Kv1.3 electrophysiology, results according to Method D1, read-out: IC50 (Kv1.3 ephys steady state)
Method: The inhibition data shown for the compounds of the list below was calculated using the steady state current amplitude at the end of the depolarising pulse in patch clamp evaluations (as described in the Biology Protocols: 1. Electrophysiology).
Kv1.x currents were measured in Kv1.3/CHO or Kv1.5/CHO cells using a planar electrode version (Nanion Technologies GMBH) of the patch-clamp technique. Whole-cell Kv1.x current transients were evoked by 500 ms depolarising voltage pulses to +40 mV from a holding potential of −80 mV applied at 10 s intervals for Kv1.5 and at 30 s intervals for Kv1.3 to allow adequate time for recovery from inactivation. Cells were continuously bathed in a buffered saline solution containing (mM): 160 NaCl, 4.5 KCl, 2 CaCl2, 1 MgCl2, 5 glucose, 10 HEPES, pH 7.4, 290-310 mOsm·Kg^−1. The internal (pipette) solution contained (mM): 10 NaCl, 70 KF, 75 KCl, 2 MgCl2, 10 HEPES, 10 EGTA, pH 7.2, 290-310 mOsm·Kg^−1. Series resistance compensation (60-80%) was applied to cells in which the peak current amplitude exceeded 2 nA.
Compound Preparation and Potency Assessment
Compounds were initially dissolved in DMSO to 10 mM. After further dilution in DMSO, compounds were finally diluted in bath solution 1/200 (to give a final DMSO concentration of 0.5%) and applied directly to the recording chamber. Compounds were added at increasing concentrations allowing ample time for steady state block to be achieved between each concentration. Each compound was tested at 5-6 different concentrations on 2-3 cells. Compound IC50 values were determined by fitting the average normalised reduction of either the current integral or the steady state current amplitude at the end of the 500 ms depolarising pulse obtained at each compound concentration to the Hill equation. The IC50 data reported herein is based on the steady state calculation.

T1 sequence (P22001 whole entry): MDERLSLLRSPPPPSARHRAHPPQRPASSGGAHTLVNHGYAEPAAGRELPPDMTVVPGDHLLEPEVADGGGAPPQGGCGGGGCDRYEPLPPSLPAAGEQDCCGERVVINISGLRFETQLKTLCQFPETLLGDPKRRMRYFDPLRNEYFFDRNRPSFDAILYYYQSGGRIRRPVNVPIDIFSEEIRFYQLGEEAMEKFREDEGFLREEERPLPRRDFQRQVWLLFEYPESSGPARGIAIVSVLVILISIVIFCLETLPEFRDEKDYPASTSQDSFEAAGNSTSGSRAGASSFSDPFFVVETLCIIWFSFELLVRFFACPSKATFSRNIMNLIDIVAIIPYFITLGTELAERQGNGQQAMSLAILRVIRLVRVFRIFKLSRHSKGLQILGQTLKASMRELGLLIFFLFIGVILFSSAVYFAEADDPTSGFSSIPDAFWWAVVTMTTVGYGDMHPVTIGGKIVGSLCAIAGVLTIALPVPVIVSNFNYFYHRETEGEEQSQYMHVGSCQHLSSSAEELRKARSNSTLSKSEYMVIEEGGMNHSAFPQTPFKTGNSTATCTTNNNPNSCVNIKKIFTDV

Row | SMILES | IC50 [nM]
1 | CC(C)C(c1ccc(OC(F)F)cc1)N(Cc1ccc(F)cn1)C(=O)C1CC1c1ccc(F)cc1F (centres unmarked) [Example 115] | 50 to 200
2 | CCC(c1ccc(S(=O)(=O)CC)cc1)N(Cc1ccc(F)cn1)C(=O)C1CC1c1ccc(F)cc1 (centres unmarked) [Example 116] | 200 to 1000
3 | CCC(c1ccc(S(=O)(=O)CC)cc1)N(Cc1ccc(F)cn1)C(=O)C1CC1c1ccc(F)cc1 (centres unmarked) [Example 117] | 50 to 200
4 | CCC(c1ccc(S(=O)(=O)CC)cc1)N(Cc1cccnn1)C(=O)C1CC1c1ccc(F)cc1 (centres unmarked) [Example 118] | 1000 to 2000
5 | CCC(c1ccc(S(=O)(=O)CC)cc1)N(Cc1ccc(C(F)(F)F)nc1)C(=O)C1CC1c1ccc(F)cc1F (centres unmarked) [Example 119] | 50 to 200
6 | CC(c1ccc(S(C)(=O)=O)cc1)N(Cc1ccc(C(F)(F)F)nc1)C(=O)C1CC1c1ccc(F)cc1 (centres unmarked) [Example 126] | 200 to 1000
7 | CCC(c1ccc(S(C)(=O)=O)cc1)N(Cc1ccc(C(F)(F)F)nc1)C(=O)C1CC1c1ccc(F)cc1F (centres unmarked) [Example 127] | 50 to 200
8 | CCC(c1ccc(S(C)(=O)=O)cc1)N(Cc1ccc(C(F)(F)F)nc1)C(=O)C1CC1c1ccc(F)cc1F (centres unmarked) [Example 128] | 50 to 200
9 | CN1CCC(C(c2ccc(OC(F)F)cc2)N(C(=O)C2CC2c2ccc(F)cc2)C2CCOCC2)CC1 (centres unmarked) [Example 140] | 1000 to 2000
10 | CCS(=O)(=O)c1cccc(C(C2CCN(C)CC2)N(Cc2ccc(F)cn2)C(=O)C2CC2c2ccc(F)cc2)c1 (centres unmarked) [Example 143] | 200 to 1000
11 | CN1CCC(C(c2ccc(F)cc2F)N(Cc2ncccc2F)C(=O)C2CC2c2ccc(F)cc2)CC1 (centres unmarked) [Example 145] | 200 to 1000
12 | CN1CCC(C(c2cccc(C(F)(F)F)c2)N(Cc2ccc(F)cn2)C(=O)C2CC2c2ccc(F)cc2)CC1 (centres unmarked) [Example 146] | 200 to 1000
13 | CN1CCC(C(c2cccc(C(F)(F)F)c2)N(Cc2cncc(F)c2)C(=O)C2CC2c2ccc(F)cc2)CC1 (centres unmarked) [Example 148] | 200 to 1000
14 | O=C(C1CC1c1ccc(F)cc1)N(Cc1ccc(F)cn1)C(c1ccc(OC(F)F)cc1)C1CNC1 (centres unmarked) [Example 152] | 200 to 1000
15 | O=C(C1CC1c1ccc(F)cc1)N(Cc1ccc(F)cn1)C(c1ccc(OC(F)F)cc1)C1CNC1 (centres unmarked) [Example 153] | 1000 to 2000
16 | CN1CC(C(c2ccc(OC(F)F)cc2)N(Cc2ccc(F)cn2)C(=O)C2CC2c2ccc(F)cc2)C1 (centres unmarked) [Example 154] | 200 to 1000

Row | SMILES | IC50 [nM]
17 | O=C(C1CC1c1ccc(F)cc1)N(Cc1ncccc1F)C(c1ccc(F)cc1)C1CNC1 (centres unmarked) [Example 157] | 200 to 1000
18 | O=C(C1CC1c1ccc(F)cc1)N(Cc1ccc(F)cn1)C(c1ccc(F)cc1)C1CNC1 (centres unmarked) [Example 158] | 200 to 1000
19 | CN1CC(C(c2ccc(OC(F)(F)F)cc2)N(Cc2ccc(F)cn2)C(=O)C2CC2c2ccc(F)cc2)C1 (centres unmarked) [Example 159] | 200 to 1000
20 | CN1CC(C(c2ccc(OC(F)F)cc2)N(Cc2ccc(C(F)(F)F)cn2)C(=O)C2CC2c2ccc(F)cc2)C1 (centres unmarked) [Example 160] | 200 to 1000
21 | CN1CC(C(c2ccc(OC(F)(F)F)cc2)N(Cc2cncc(F)c2)C(=O)C2CC2c2ccc(F)cc2)C1 (centres unmarked) [Example 162] | 200 to 1000
22 | CN1CC(C(c2ccc(OC(F)(F)F)cc2)N(Cc2cncc(F)c2)C(=O)C2CC2c2ccc(F)cc2)C1 (centres unmarked) [Example 163] | 200 to 1000
23 | O=C(C1CC1c1ccc(F)cc1)N(Cc1ncccc1F)C(c1ccc(F)cc1)C1CCOC1 (centres unmarked) [Example 171] | 200 to 1000
24 | O=C(C1CC1c1ccc(F)cc1)N(Cc1ncccc1F)C(c1ccc(F)cc1)C1CCOC1 (centres unmarked) [Example 172] | 50 to 200
25 | O=C(C1CC1c1ccc(F)cc1)N(Cc1cccnn1)C(c1ccc(F)cc1)C1CCOC1 (centres unmarked) [Example 173] | 50 to 200
26 | O=C(C1CC1c1ccc(F)cc1)N(Cc1cccnn1)C(c1ccc(F)cc1)C1CCOC1 (centres unmarked) [Example 174] | 50 to 200
27 | O=C(C1CC1c1ccc(F)cc1)N(Cc1ccc(F)cn1)C(c1ccc(F)cc1)C1CCOC1 (centres unmarked) [Example 175] | 200 to 1000
28 | O=C(C1CC1c1ccc(F)c(F)c1)N(Cc1cccnn1)C(c1ccc(OC(F)F)cc1)C1CC1 (centres unmarked) [Example 180] | 50 to 200
29 | O=C(C1CC1c1ccc(F)cc1F)N(Cc1cccnn1)C(c1ccc(OC(F)F)cc1)C1CC1 (centres unmarked) [Example 182] | 50 to 200
30 | Cn1ccnc1CN(C(=O)C1CC1c1ccc(F)cc1)C(c1ccc(OC(F)F)cc1)C1CC1 (centres unmarked) [Example 187] | 200 to 1000
31 | Cn1cncc1CN(C(=O)C1CC1c1ccc(F)cc1)C(c1ccc(OC(F)F)cc1)C1CC1 (centres unmarked) [Example 189] | 200 to 1000

Now from value to compound:

Row | IC50 [nM] | SMILES
32 | 200 to 1000 | CCC(c1ccc(S(C)(=O)=O)cc1)N(Cc1ccc(C(F)(F)F)nc1)C(=O)C1CC1c1ccc(F)cc1 (centres unmarked) [Example 120]
33 | 50 to 200 | CCC(c1ccc(S(C)(=O)=O)cc1)N(Cc1ccc(C(F)(F)F)nc1)C(=O)C1CC1c1ccc(F)cc1 (centres unmarked) [Example 121]
34 | 50 to 200 | CCC(c1ccc(S(C)(=O)=O)cc1)N(Cc1ccc(F)cn1)C(=O)C1CC1c1ccc(F)cc1 (centres unmarked) [Example 122]
35 | 200 to 1000 | CC(c1ccc(S(C)(=O)=O)cc1)N(Cc1cccnn1)C(=O)C1CC1c1ccc(F)cc1 (centres unmarked) [Example 123]
36 | 200 to 1000 | CCC(c1ccc(S(C)(=O)=O)cc1)N(Cc1cccnn1)C(=O)C1CC1c1ccc(F)cc1 (centres unmarked) [Example 124]
37 | 1000 to 2000 | CCC(c1ccc(S(C)(=O)=O)cc1)N(Cc1cccnn1)C(=O)C1CC1c1ccc(F)cc1 (centres unmarked) [Example 125]
38 | 50 to 200 | CCC(c1ccc(S(C)(=O)=O)cc1)N(Cc1ccc(C(F)(F)F)nc1)C(=O)C1CC1c1ccc(F)cc1F (centres unmarked) [Example 129]
39 | 200 to 1000 | CCC(c1ccc(S(=O)(=O)C(C)C)cc1)N(Cc1cccnn1)C(=O)C1CC1c1ccc(F)cc1 (centres unmarked) [Example 130]
40 | 200 to 1000 | CN1CCC(C(c2ccc(OC(F)F)cc2)N(Cc2ccc(F)cn2)C(=O)C2CC2c2ccc(F)cc2)CC1 (centres unmarked) [Example 142]
41 | 200 to 1000 | CN1CCC(C(c2ccc(F)cc2F)N(Cc2ccc(F)cn2)C(=O)C2CC2c2ccc(F)cc2)CC1 (centres unmarked) [Example 144]
42 | 200 to 1000 | CN1CCC(C(c2cccc(C(F)(F)F)c2)N(Cc2ccc(F)cn2)C(=O)C2CC2c2ccc(F)cc2)CC1 (centres unmarked) [Example 147]
43 | 200 to 1000 | CN1CC(C(c2ccc(OC(F)F)cc2)N(Cc2ncccc2F)C(=O)C2CC2c2ccc(F)cc2)C1 (centres unmarked) [Example 150]
44 | 200 to 1000 | CN1CC(C(c2ccc(OC(F)F)cc2)N(Cc2ncccc2F)C(=O)C2CC2c2ccc(F)cc2)C1 (centres unmarked) [Example 151]
45 | 200 to 1000 | CN1CC(C(c2ccc(F)cc2)N(Cc2ncccc2F)C(=O)C2CC2c2ccc(F)cc2)C1 (centres unmarked) [Example 155]
46 | 50 to 200 | CN1CC(C(c2ccc(F)cc2)N(Cc2ncccc2F)C(=O)C2CC2c2ccc(F)cc2)C1 (centres unmarked) [Example 156]
47 | 200 to 1000 | CN1CC(C(c2ccc(OC(F)F)cc2)N(Cc2ccc(C(F)(F)F)cn2)C(=O)C2CC2c2ccc(F)cc2)C1 (centres unmarked) [Example 161]
48 | 50 to 200 | O=C(C1CC1c1ccc(F)cc1)N(Cc1ccc(F)cn1)C(c1ccc(F)cc1)C1CCOC1 (centres unmarked) [Example 176]
49 | 200 to 1000 | O=C(C1CC1c1ccc(F)cc1)N(Cc1cnc[nH]1)C(c1ccc(OC(F)F)cc1)C1CC1 (centres unmarked) [Example 183]
50 | 200 to 1000 | O=C(C1CC1c1cccc(C(F)(F)F)c1)N(Cc1cccnn1)C(c1ccc(OC(F)F)cc1)C1CC1 (centres unmarked) [Example 184]
51 | 200 to 1000 | O=C(C1CC1c1ccc(F)cc1)N(CCN1CCCC(F)(F)C1)C(c1ccc(OC(F)F)cc1)C1CC1 (centres unmarked) [Example 186]
52 | 50 to 200 | O=C(C1CC1c1ccccc1OC(F)(F)F)N(Cc1cccnn1)C(c1ccc(OC(F)F)cc1)C1CC1 (centres unmarked) [Example 188]
53 | < 50 | Cn1cc(CN(C(=O)C2CC2c2ccc(F)cc2)C(c2ccc(OC(F)F)cc2)C2CC2)cn1 (centres unmarked) [Example 190]
